In BindingDB's records for doi:10.1016/j.ejmech.2013.04.056 (Jamia Hamdard (Hamdard University), 2013):

Target: T1, Prostaglandin G/H synthase 1 (Ovis aries, UniProt P05979)
T1 sequence (P05979 whole entry): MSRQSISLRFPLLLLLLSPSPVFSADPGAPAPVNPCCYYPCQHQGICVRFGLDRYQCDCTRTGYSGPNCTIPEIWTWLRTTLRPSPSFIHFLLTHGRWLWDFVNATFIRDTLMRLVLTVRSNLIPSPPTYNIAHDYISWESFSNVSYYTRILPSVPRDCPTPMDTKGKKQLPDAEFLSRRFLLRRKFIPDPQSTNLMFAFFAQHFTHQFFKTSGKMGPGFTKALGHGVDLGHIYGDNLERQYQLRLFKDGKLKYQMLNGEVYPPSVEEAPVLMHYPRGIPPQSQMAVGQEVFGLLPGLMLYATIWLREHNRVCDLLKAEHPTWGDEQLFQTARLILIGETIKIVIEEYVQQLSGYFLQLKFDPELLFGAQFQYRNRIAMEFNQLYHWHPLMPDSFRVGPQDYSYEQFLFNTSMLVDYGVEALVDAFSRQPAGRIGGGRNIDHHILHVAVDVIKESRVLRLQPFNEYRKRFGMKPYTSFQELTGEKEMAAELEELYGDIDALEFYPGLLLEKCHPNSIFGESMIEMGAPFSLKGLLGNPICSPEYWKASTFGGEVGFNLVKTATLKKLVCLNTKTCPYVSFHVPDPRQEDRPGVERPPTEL
Experiment: Inhibition of ovine COX1

COc1cc(/C=C/C(=O)c2c(O)cc(C)c(Cl)c2C)cc(OC)c1OC
IC50: 87.5 µM
